According to the supplement of paper PMC10307832:

Legend:
Test in all cases: relative viability (nuclei count vs DMSO), 5 days (fraction); higher = more cells survive
NCI-H2023 = system: NCI-H2023
How it was run: (§1)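 After 5 days of treatment, lung cancer cells in 1536-well plates were fixed and stained in a single step (final 0.05% Triton X-100, 1% formaldehyde, 1 ug/ml Hoechst) and their nuclei counted on 4× images. Treatment had been applied by pin tool the day after seeding as one drug alone or as a fixed anchor-drug dose with five library-drug doses (not always all listed) in √10 steps. Relative viability is the nuclei count of treated wells divided by that of vehicle wells, and values are medians of duplicate plates.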

COR-L23 = system: COR-L23
How it was run: as §1

A-427 = system: A-427
How it was run: as §1

SK-MES-1 = system: SK-MES-1
How it was run: as §1

NCI-H1651 = system: NCI-H1651
How it was run: as §1

COR-L 105 = system: COR-L 105
How it was run: as §1

LCLC-103H = system: LCLC-103H
How it was run: as §1

NCI-H650 = system: NCI-H650
How it was run: as §1

CAL-12T = system: CAL-12T
How it was run: as §1

NCI-H2085 = system: NCI-H2085
How it was run: as §1

HOP-62 = system: HOP-62
How it was run: as §1

LXF-289 = system: LXF-289
How it was run: as §1

NCI-H1563 = system: NCI-H1563
How it was run: as §1

NCI-H2170 = system: NCI-H2170
How it was run: as §1

NCI-H1975 = system: NCI-H1975
How it was run: as §1

NCI-H596 = system: NCI-H596
How it was run: as §1

RERF-LC-KJ = system: RERF-LC-KJ
How it was run: as §1

NCI-H3122 = system: NCI-H3122
How it was run: as §1

NCI-H647 = system: NCI-H647
How it was run: as §1

NCI-H2087 = system: NCI-H2087
How it was run: as §1

COCC1(CO)C(=O)C2CCN1CC2 (centres undefined) [PRIMA-1MET] + C[C@@H](Oc1cc(-c2cnn(C3CCNCC3)c2)cnc1N)c1c(Cl)ccc(F)c1Cl [Crizotinib] (partner 1 µM)
relative viability (NCI-H2023; first compound 0.2 µM): 0.764
relative viability (NCI-H2023; first compound 0.6325 µM): 0.623
relative viability (NCI-H2023; first compound 2 µM): 0.601
relative viability (NCI-H2023; first compound 6.325 µM): 0.694
relative viability (NCI-H2023; first compound 20 µM): 0.584
relative viability (COR-L23; first compound 0.2 µM): 0.704
relative viability (COR-L23; first compound 0.6325 µM): 0.612
relative viability (COR-L23; first compound 2 µM): 0.61
relative viability (COR-L23; first compound 6.325 µM): 0.565
relative viability (COR-L23; first compound 20 µM): 0.0228
relative viability (A-427; first compound 0.2 µM): 0.935
relative viability (A-427; first compound 0.6325 µM): 0.721
relative viability (A-427; first compound 2 µM): 0.769
relative viability (A-427; first compound 6.325 µM): 0.959
relative viability (A-427; first compound 20 µM): 0.822
relative viability (SK-MES-1; first compound 0.2 µM): 1.09
relative viability (SK-MES-1; first compound 0.6325 µM): 0.968
relative viability (SK-MES-1; first compound 2 µM): 1.03
relative viability (SK-MES-1; first compound 6.325 µM): 0.943
relative viability (SK-MES-1; first compound 20 µM): 0.997
relative viability (NCI-H1651; first compound 0.2 µM): 0.991
relative viability (NCI-H1651; first compound 0.6325 µM): 0.788
relative viability (NCI-H1651; first compound 2 µM): 0.741
relative viability (NCI-H1651; first compound 6.325 µM): 0.955
relative viability (NCI-H1651; first compound 20 µM): 0.888
relative viability (COR-L 105; first compound 0.2 µM): 0.918
relative viability (COR-L 105; first compound 0.6325 µM): 0.664
relative viability (COR-L 105; first compound 2 µM): 0.74
relative viability (COR-L 105; first compound 6.325 µM): 0.782
relative viability (COR-L 105; first compound 20 µM): 0.254
relative viability (LCLC-103H; first compound 0.2 µM): 1.16
relative viability (LCLC-103H; first compound 0.6325 µM): 1.05
relative viability (LCLC-103H; first compound 2 µM): 0.894
relative viability (LCLC-103H; first compound 6.325 µM): 1.11
relative viability (LCLC-103H; first compound 20 µM): 1.06
relative viability (NCI-H650; first compound 0.2 µM): 0.894
relative viability (NCI-H650; first compound 2 µM): 0.616
relative viability (NCI-H650; first compound 6.325 µM): 0.675
relative viability (NCI-H650; first compound 20 µM): 0.109
relative viability (CAL-12T; first compound 0.2 µM): 0.788
relative viability (CAL-12T; first compound 0.6325 µM): 0.834
relative viability (CAL-12T; first compound 2 µM): 0.687
relative viability (CAL-12T; first compound 6.325 µM): 0.661
relative viability (CAL-12T; first compound 20 µM): 0.283
relative viability (NCI-H2085; first compound 0.2 µM): 0.886
relative viability (NCI-H2085; first compound 0.6325 µM): 0.747
relative viability (NCI-H2085; first compound 2 µM): 0.692
relative viability (NCI-H2085; first compound 6.325 µM): 0.518
relative viability (NCI-H2085; first compound 20 µM): 0.155
relative viability (HOP-62; first compound 0.2 µM): 0.999
relative viability (HOP-62; first compound 0.6325 µM): 0.76
relative viability (HOP-62; first compound 2 µM): 0.666
relative viability (HOP-62; first compound 6.325 µM): 0.969
relative viability (HOP-62; first compound 20 µM): 0.768
relative viability (LXF-289; first compound 0.2 µM): 0.81
relative viability (LXF-289; first compound 0.6325 µM): 0.869
relative viability (LXF-289; first compound 2 µM): 0.871
relative viability (LXF-289; first compound 6.325 µM): 0.815
relative viability (LXF-289; first compound 20 µM): 0.767
relative viability (NCI-H1563; first compound 0.2 µM): 0.887
relative viability (NCI-H1563; first compound 0.6325 µM): 0.806
relative viability (NCI-H1563; first compound 2 µM): 0.868
relative viability (NCI-H1563; first compound 6.325 µM): 0.843
relative viability (NCI-H1563; first compound 20 µM): 0.262
relative viability (NCI-H2170; first compound 0.2 µM): 1.38
relative viability (NCI-H2170; first compound 0.6325 µM): 1.13
relative viability (NCI-H2170; first compound 2 µM): 1.02
relative viability (NCI-H2170; first compound 6.325 µM): 1.26
relative viability (NCI-H2170; first compound 20 µM): 1.21
relative viability (NCI-H1975; first compound 0.2 µM): 1.12
relative viability (NCI-H1975; first compound 0.6325 µM): 0.962
relative viability (NCI-H1975; first compound 2 µM): 0.938
relative viability (NCI-H1975; first compound 6.325 µM): 0.939
relative viability (NCI-H1975; first compound 20 µM): 0.828
relative viability (NCI-H596; first compound 0.2 µM): 1.08
relative viability (NCI-H596; first compound 0.6325 µM): 0.962
relative viability (NCI-H596; first compound 2 µM): 0.863
relative viability (NCI-H596; first compound 6.325 µM): 1.04
relative viability (NCI-H596; first compound 20 µM): 0.174
relative viability (RERF-LC-KJ; first compound 0.2 µM): 0.868
relative viability (RERF-LC-KJ; first compound 0.6325 µM): 0.767
relative viability (RERF-LC-KJ; first compound 2 µM): 0.86
relative viability (RERF-LC-KJ; first compound 6.325 µM): 0.85
relative viability (RERF-LC-KJ; first compound 20 µM): 0.847
relative viability (NCI-H3122; first compound 0.2 µM): 0.317
relative viability (NCI-H3122; first compound 0.6325 µM): 0.25
relative viability (NCI-H3122; first compound 2 µM): 0.259
relative viability (NCI-H3122; first compound 6.325 µM): 0.286
relative viability (NCI-H3122; first compound 20 µM): 0.284
relative viability (NCI-H647; first compound 0.2 µM): 1
relative viability (NCI-H647; first compound 0.6325 µM): 1.24
relative viability (NCI-H647; first compound 2 µM): 1.09
relative viability (NCI-H647; first compound 6.325 µM): 1.08
relative viability (NCI-H647; first compound 20 µM): 0.896
relative viability (NCI-H2087; first compound 0.2 µM): 0.949
relative viability (NCI-H2087; first compound 0.6325 µM): 0.751
relative viability (NCI-H2087; first compound 2 µM): 0.474
relative viability (NCI-H2087; first compound 6.325 µM): 0.794
relative viability (NCI-H2087; first compound 20 µM): 0.805
